Source: ChEMBL document CHEMBL1153258, “Synthesis and antiviral activity of 3-substituted imidazo[1,2-a]pyridines” (Bioorg Med Chem Lett, 1994)
In brackets after ≈: the same amount, converted by molar mass.

How the values were obtained:
HEL [1] = assay: Cytotoxicity (to alter cell morphology) against Varicella-Zoster virus in human embryonic lung (HEL) cells; assay type: functional
HEL [2] = assay: Antiviral activity against thymidine kinase-negative (TK-) YS/R strain of Varicella zoster virus to reduce plaque formation in human embryonic lung (HEL) cells; assay type: functional, cell-based
HEL [3] = assay: Antiviral activity against thymidine kinase-positive (TK+) OKA strain of Varicella zoster virus to reduce plaque formation in human embryonic lung (HEL) cells; assay type: functional, cell-based
HEL [4] = assay: Antiviral activity against thymidine kinase-positive (TK+) YS strain of Varicella zoster virus to reduce plaque formation in human embryonic lung (HEL) cells; assay type: functional, cell-based
[5] = Cytotoxicity (to reduce cell growth) against Varicella-Zoster virus in human embryonic lung (HEL) cells; assay type: cell-based
E6SM [6] = assay: Cytotoxicity (to alter cell morphology) against E6SM cell cultures; assay type: functional; settings: Homo sapiens
E6SM [7] = assay: Antiviral activity (to reduce virus-induced cytopathogenicity) against Herpes simplex virus-1 TK-B2006 in E6SM cell cultures; assay type: functional; settings: Homo sapiens
E6SM [8] = assay: Antiviral activity (to reduce virus-induced cytopathogenicity) against Herpes simplex virus-1 TK-VMW1837 in E6SM cell cultures; assay type: functional; settings: Homo sapiens
E6SM [9] = assay: Antiviral activity (to reduce virus-induced cytopathogenicity) against Herpes simplex virus-1(KOS) in E6SM cell cultures; assay type: functional; settings: Homo sapiens
E6SM [10] = assay: Antiviral activity (to reduce virus-induced cytopathogenicity) against Herpes simplex virus-2 (G) in E6SM cell cultures; assay type: functional; settings: Homo sapiens
E6SM [11] = assay: Antiviral activity (to reduce virus-induced cytopathogenicity) against Vaccinia virus in E6SM cell cultures; assay type: functional; settings: Homo sapiens
E6SM [12] = assay: Antiviral activity (to reduce virus-induced cytopathogenicity) against Vesicular stomatitis virus in E6SM cell cultures; assay type: functional; settings: Homo sapiens
HEL [13] = assay: Cytotoxicity (to alter cell morphology) against Cytomegalovirus in human embryonic lung (HEL) cells; assay type: functional
HEL [14] = assay: Antiviral activity against Cytomegalovirus (AD-169 strain) to reduce plaque formation in human embryonic lung (HEL) cells; assay type: functional, cell-based
HEL [15] = assay: Antiviral activity against Cytomegalovirus (Davis strain) to reduce plaque formation in human embryonic lung (HEL) cells; assay type: functional, cell-based
HEL [16] = assay: Antiviral activity against thymidine kinase-negative (TK-) O7/1 strain of Varicella zoster virus to reduce plaque formation in human embryonic lung (HEL) cells; assay type: functional, cell-based
[17] = Cytotoxicity (to reduce cell growth) against Cytomegalovirus in human embryonic lung (HEL) cells; assay type: cell-based
HeLa [18] = assay: Antiviral activity (to reduce virus-induced cytopathogenicity) against Coxsackie virus B4 in HeLa cells; assay type: functional; settings: Homo sapiens
HeLa [19] = assay: Antiviral activity (to reduce virus-induced cytopathogenicity) against Polio virus-I in HeLa cells; assay type: functional; settings: Homo sapiens
HeLa [20] = assay: Antiviral activity (to reduce virus-induced cytopathogenicity) against Vesicular stomatitis virus in HeLa cells; assay type: functional; settings: Homo sapiens
HeLa [21] = assay: Cytotoxicity (to alter cell morphology) against HeLa cells; assay type: functional; settings: Homo sapiens
Vero [22] = assay: Minimum cytotoxic concentration (to alter cell morphology) against vero cells; assay type: functional; settings: Chlorocebus sabaeus
Vero [23] = assay: Antiviral activity (to reduce virus-induced cytopathogenicity) against Parainfluenza-3 virus in vero cells; assay type: functional; settings: Chlorocebus sabaeus
Vero [24] = assay: Antiviral activity (to reduce virus-induced cytopathogenicity) against Reovirus-1 in vero cells; assay type: functional; settings: Chlorocebus sabaeus
Vero [25] = assay: Antiviral activity (to reduce virus-induced cytopathogenicity) against forest virus in vero cells; assay type: functional; settings: Chlorocebus sabaeus
Vero [26] = assay: Antiviral activity (to reduce virus-induced cytopathogenicity) against Sindbis virus in vero cells; assay type: functional; settings: Chlorocebus sabaeus
Vero [27] = assay: Antiviral activity (to reduce virus-induced cytopathogenicity) against Coxsackie virus in vero cells; assay type: functional; settings: Chlorocebus sabaeus

| SMILES | MCC (HEL [1]) [µg/mL] | IC50 (HEL [2]) [µg/mL] | IC50 (HEL [3]) [µg/mL] | MCC (E6SM [6]) [µg/mL] | MIC (E6SM [7]) [µg/mL] | MIC (E6SM [8]) [µg/mL] | MIC (E6SM [9]) [µg/mL] | MIC (E6SM [10]) [µg/mL] | MIC (E6SM [11]) [µg/mL] | MIC (E6SM [12]) [µg/mL] | MIC (HeLa [18]) [µg/mL] | MIC (HeLa [19]) [µg/mL] | MIC (HeLa [20]) [µg/mL] | MCC (HeLa [21]) [µg/mL] | MCC (Vero [22]) [µg/mL] | MIC (Vero [23]) [µg/mL] | MIC (Vero [24]) [µg/mL] | MIC (Vero [25]) [µg/mL] | MIC (Vero [26]) [µg/mL] | MIC (Vero [27]) [µg/mL] | other results |
| --- | --- | --- | --- | --- | --- | --- | --- | --- | --- | --- | --- | --- | --- | --- | --- | --- | --- | --- | --- | --- | --- |
| Nc1nc2c(ncn2COCCO)c(=O)[nH]1 [ACYCLOVIR] | > 40 | 9 (≈ 40 µM) | 0.23 (≈ 1.02 µM) | – | – | – | – | – | – | – | – | – | – | – | – | – | – | – | – | – | IC50 (HEL [4]): 0.32 µg/mL (≈ 1.42 µM); CC50 [5]: > 50 µg/mL |
| Cc1ccn2c(COCCO)cnc2c1 | > 40 | > 40 | > 40 | > 400 | > 400 | > 400 | > 400 | > 400 | > 400 | > 400 | > 200 | > 200 | > 200 | 200 | > 200 | > 200 | > 200 | > 200 | > 200 | > 200 | MCC (HEL [13]): > 40 µg/mL; IC50 (HEL [14]): > 40 µg/mL; IC50 (HEL [15]): > 40 µg/mL; IC50 (HEL [16]): > 40 µg/mL; IC50 (HEL [4]): > 40 µg/mL; CC50 [17]: > 200 µg/mL; CC50 [5]: > 200 µg/mL |
| O=c1[nH]c(=O)n([C@H]2C[C@H](O)[C@@H](CO)O2)cc1/C=C/Br [BRIVUDINE] | – | – | – | > 400 | 2 (≈ 6 µM) | 1 (≈ 3 µM) | 0.004 (≈ 0.012 µM) | 20 (≈ 60 µM) | 0.2 (≈ 0.6 µM) | > 400 | > 400 | > 400 | > 400 | > 400 | > 400 | > 400 | > 400 | > 400 | > 400 | > 400 | – |
| Nc1ncnc2c1ncn2C[C@H](O)CO [(S)-DHPA] | – | – | – | > 400 | 200 (≈ 956 µM) | 100 (≈ 478 µM) | 100 (≈ 478 µM) | > 400 | 40 (≈ 191 µM) | 40 (≈ 191 µM) | > 400 | > 400 | 70 (≈ 335 µM) | > 400 | > 400 | 20 (≈ 95.6 µM) | 40 (≈ 191 µM) | > 400 | > 400 | > 400 | – |
| OCCSCc1c(-c2ccccc2)nc2ccccn12 | > 40 | 10 (≈ 35.2 µM) | 28 (≈ 98.5 µM) | > 200 | > 40 | > 40 | 100 (≈ 352 µM) | 70 (≈ 246 µM) | 70 (≈ 246 µM) | > 40 | > 100 | > 100 | > 100 | > 100 | 40 | > 10 | > 10 | 20 (≈ 70.3 µM) | 20 (≈ 70.3 µM) | 70 (≈ 246 µM) | MCC (HEL [13]): > 40 µg/mL; IC50 (HEL [14]): 20 µg/mL (≈ 70.3 µM); IC50 (HEL [15]): 25 µg/mL (≈ 87.9 µM); IC50 (HEL [16]): 26 µg/mL (≈ 91.4 µM); IC50 (HEL [4]): 35 µg/mL (≈ 123 µM); CC50 [17]: 80 µg/mL (≈ 281 µM); CC50 [5]: 80 µg/mL (≈ 281 µM) |
| Nc1nc2c(ncn2COC(CO)CO)c(=O)[nH]1 [GANCICLOVIR] | – | – | – | – | – | – | – | – | – | – | – | – | – | – | – | – | – | – | – | – | MCC (HEL [13]): > 100 µg/mL; IC50 (HEL [14]): 2 µg/mL (≈ 7.84 µM); IC50 (HEL [15]): 1.5 µg/mL (≈ 5.88 µM); CC50 [17]: 200 µg/mL (≈ 784 µM) |
| OCCOCc1c(-c2ccccc2)nc2ccccn12 | > 40 | > 40 | > 40 | > 200 | > 100 | > 100 | > 200 | > 200 | > 200 | > 100 | > 200 | > 200 | > 200 | 400 | 400 | 70 (≈ 261 µM) | > 200 | > 200 | > 200 | > 200 | MCC (HEL [13]): 100 µg/mL; IC50 (HEL [14]): > 40 µg/mL; IC50 (HEL [15]): > 40 µg/mL; IC50 (HEL [16]): > 40 µg/mL; IC50 (HEL [4]): > 40 µg/mL; CC50 [17]: 130 µg/mL (≈ 485 µM); CC50 [5]: 135 µg/mL (≈ 503 µM) |
| Nc1nccc2c1ncn2[C@@H]1O[C@H](CO)[C@@H](O)[C@H]1O | – | – | – | > 400 | 200 (≈ 751 µM) | > 400 | > 400 | 300 (≈ 1130 µM) | 0.7 (≈ 2.63 µM) | 0.7 (≈ 2.63 µM) | > 400 | > 400 | 2 (≈ 7.51 µM) | > 400 | > 400 | 0.7 (≈ 2.63 µM) | 2 (≈ 7.51 µM) | > 400 | 4 (≈ 15 µM) | > 400 | – |
| NC(=O)c1ncn([C@@H]2O[C@H](CO)[C@@H](O)[C@H]2O)n1 [RIBAVIRIN] | – | – | – | > 400 | 300 (≈ 1230 µM) | 300 (≈ 1230 µM) | > 400 | 150 (≈ 614 µM) | 70 (≈ 287 µM) | 150 (≈ 614 µM) | 70 (≈ 287 µM) | 70 (≈ 287 µM) | 20 (≈ 81.9 µM) | > 400 | > 400 | 70 (≈ 287 µM) | 100 (≈ 409 µM) | 70 (≈ 287 µM) | 70 (≈ 287 µM) | 300 (≈ 1230 µM) | – |
| Cc1ccn2c(CSCCO)cnc2c1 | 40 | 7 (≈ 31.5 µM) | 10 (≈ 45 µM) | > 200 | > 100 | > 100 | > 200 | > 100 | > 100 | > 100 | > 10 | > 10 | > 10 | 10 | 100 | 70 (≈ 315 µM) | > 40 | > 100 | 70 (≈ 315 µM) | > 100 | MCC (HEL [13]): 40 µg/mL; IC50 (HEL [14]): > 10 µg/mL; IC50 (HEL [15]): > 10 µg/mL; IC50 (HEL [16]): 4 µg/mL (≈ 18 µM); IC50 (HEL [4]): 6 µg/mL (≈ 27 µM); CC50 [17]: 70 µg/mL (≈ 315 µM); CC50 [5]: 70 µg/mL (≈ 315 µM) |
